Source: patent publication US5734081A, “Arylthio compounds” (Warner-Lambert Company, priority 1995, dated 1998)
Where two headings read alike, the source gives them in different places.

Columns and labels:
HIV-1A17 [1] = assay: Anti-HIV activity, HIV-1A17 in MT-4 cells; assay type: cell-based
Description: (§1) The compounds of the invention were also evaluated against various other HIV strains and cell lines utilizing the assay methodology described above. The compounds were additionally evaluated against clinical isolates of HIV strains.

HIV-16R = assay: Anti-HIV activity, HIV-16R in MT-4 cells; assay type: cell-based, HIV-1
Description: as §1

HIV-2ROD = assay: Anti-HIV activity, HIV-2ROD in CEM cells; assay type: cell-based; settings: Human immunodeficiency virus 2, CCRF-CEM
Description: (§2) Yet another test system employed to determine antiviral activity is called the CEM cell assay.
(§3) T4 lymphocytes (CEM cell line) are exposed to HIV at a virus to cell ratio approximately 0.05, and plated along with noninfected control cells in 96-well microliter plates.
(§4) The candidate agent is dissolved in dimethyl sulfoxide (unless otherwise noted), then diluted 1:200 in cell culture medium. Further dilutions (half-log10) are prepared before adding to an equal volume of medium containing either infected or noninfected cells. Cultures are incubated at 37° in a 5% carbon dioxide atmosphere for 6 or 7 days. The tetrazolium salt, XTT, is added to all wells, and cultures are incubated to allow formazan color development by viable cells (J. National Cancer Institute, 1989;81:577-586). Individual wells are analyzed spectrophotometrically to quantitate formazan production, and in addition are viewed microscopically for detection of viable cells confirmation of protective activity.
(§5) Drug-tested virus-infected cells are compared with drug-treated noninfected cells and with other appropriate controls (untreated infected and untreated noninfected cells, drug-contain wells without cells, etc.) on the same plate. Data are reviewed in comparison with other tests done at the same time and a determination about activity is made.
as §1

SIV = assay: Antiviral activity, SIV in CEM cells; assay type: cell-based; settings: Simian immunodeficiency virus, CCRF-CEM
HIV-1RF = assay: Anti-HIV activity, HIV-1RF in CEM cells; assay type: cell-based; settings: Human immunodeficiency virus 1, CCRF-CEM
Description: as §2, §3, §4, §5, §1

HIV-1N119 = assay: Anti-HIV activity, HIV-1N119 in CEM cells; assay type: cell-based; settings: Human immunodeficiency virus 1, CCRF-CEM
Description: as §2, §3, §4, §5, §1

HIV-1IIIb [2] = assay: Anti-HIV activity, HIV-1IIIb in CEM cells; assay type: cell-based; settings: Human immunodeficiency virus 1, CCRF-CEM
Description: as §2, §3, §4, §5, §1

HIV-1WEIO = assay: Anti-HIV activity, clinical isolate HIV-1WEIO in PBL; assay type: cell-based
Description: as §1

[3] = target: T1, HIV-1 Nucleocapsid Protein (NCp7) (Human immunodeficiency virus type 1 group M subtype B, UniProt P12493); assay: Zinc extrusion assay (TSQ fluorescence) from the zinc fingers of HIV-1 nucleocapsid protein (NCp7); assay type: biochemical; settings: 10 μM compound, 2.8 μM NCp7, pH 7.4, 26° C., 90 minutes
T1 construct: The NCp7 protein containing 2 Zn-fingers and 2 Zn ions is incubated with drug
Excerpt: The compounds of the present invention cause the extrusion of zinc from the nucleocapsid protein (NCp7) of HIV-1. The NC protein is highly conserved among all retroviruses (South T., Blake P., et al., Biochemistry, 1990;29:7786) and is essential for viral infectivity (Aldovini A. and Young R., J. Virology, 1990;64:1920 and Gorelick R., Nigida S., et al., J. Virology, 1990;64:3207). The zinc is normally held in NC proteins by 1 or 2 zinc fingers. In the case of HIV-1, 2 zinc fingers are present (Summers M., South T., et al., Biochemistry, 1990;29:329) and are involved specifically with the PSI site on viral RNA which controls the packaging of viral RNA. Interference of this packaging causes the formation of non-infectious virions (Dannull J., Surovoy A., et al., EMBO, 1994;13:1525). It has previously been shown that compounds that cause zinc extrusion have potent anti-HIV activity in multiple cell lines and against all retroviruses (Rice W., Schaeffer C., et al., Nature, 1993;361:473).
A fluorescence-based assay has been developed to monitor the ejection of zinc from purified HIV-1 NCp7. The fluorophore, N-(6-methoxy-8-quinolyl)-p-toluenesulfonamide (TSQ), has an increased fluorescent signal upon bonding zinc ion in solution. The NCp7 protein containing 2 Zn-fingers and 2 Zn ions is incubated with drug causing the extrusion of Zn ions. The released Zn is then sequestered by the TSQ and the increased fluorescence monitored relative to control. […] Fluorescence (excitation 355 nm emission 400 nm) was monitored versus time. Controls were the NCp7 under assay conditions without drug, and apo NCp7 (no Zn) with drug. The % Zn extrusion was calculated based on the actual fluorescence measured divided by the fluorescence of all theoretical Zn extruded (5.6 μM)×100.
Table 1 below presents data for several invention compounds evaluated in the zinc extrusion assay described above.

HIV-1 [4] = assay: HIV H9 cell assay, anti-HIV-1 activity; assay type: cell-based; settings: Human immunodeficiency virus 1, H9, 168 h, read-out: EC50 (Effective Concentration which protects cells from viral cytopathic effects)
Excerpt: Another test system utilized to evaluate the invention compounds is called HIV H9 assay. The HIV H9 cell assay measures the inhibitor concentration required to suppress HIV-1 virus replication. In this system, viral growth occurs through multiple rounds of the life-cycle. Any suppression of the replication kinetics results in a geometric decrease in virus production. As a result, this assay is a sensitive means of measuring the ability of a compound to inhibit HIV-1 viral replication.
(§6) The H9 T-cell line is batch infected with HIV virus at an M0I of 0.01. After 2 hours absorption, the cells are washed, resuspended in RPMI-1640/10% fetal calf serum, and seeded at […] of a 96-well plate. A duplicate plate of uninfected H9 cells is prepared for the cytotoxicity assay. Drugs are serially diluted 1/3.16 in DMSO, transferred to media at an 8× concentration, and then added to the cultures in triplicate. The final DMSO concentration of 0.002 (0.2%).
(§7) Viral production is measured by RT assay and cytotoxicity is measured by XTT assay at 7 days post-infection. The RT assay is performed as a modification of Borroto-Esoda and Boone, J. Virol., 1991;65:1952-1959 and quantitated using a Molecular Dynamics Phosphoimager with Imagequant software. The XTT assay is performed as a modification of Roehm, et al., J. Immuno. Methods., 1991;142:257-265 and quantitated using a molecular Devices Thermomax plate reader with Softmax software.
(§8) Data is electronically transferred to a Microsoft Excell spreadsheet for analysis. The RT assay values equivalent to 50% and 90% inhibition of virus production are calculated from the untreated controls. The concentrations of inhibitor required to produce these values (IC50 and IC90) are interpolated from data points flanking these RT activities. The XTT assay values equivalent to 50% cytotoxicity are calculated from the untreated controls. The concentrations of inhibitor required to produce this value are interpolated from data points flanking these XTT values.

Strep. pyogenes c-203 = assay: Antibacterial activity, microtitration; assay type: cell-based; settings: Gram (+)
Description: (§9) The compounds are additionally useful as broad spectrum antibiotics. Minimum inhibitory concentrations were determined utilizing microtitration techniques described by Heifetz, et. al., Antimicrobial Agents and Chemotherapy, 1974, Vol. 6, 124. The data establish that the compounds have activity against a broad spectrum of bacteria, both Gram +and Gram -. Accordingly, the compounds can be utilized to treat and prevent bacterial diseases in animals and humans. They can also be used as industrial disinfectants, for example, to reduce bacterial growth in shower stalls and public areas.

E. coli MC4100 = assay: Antibacterial activity, microtitration; assay type: cell-based; settings: Gram (-)
Description: as §9

E. coli B90 = assay: Antibacterial activity, microtitration; assay type: cell-based; settings: Gram (-)
Description: as §9

Stah. aureus RBI = assay: Antibacterial activity, microtitration; assay type: cell-based; settings: Gram (+)
Description: as §9

[5] = H9 cell cytotoxicity (XTT assay, uninfected cells); assay type: cell-based; settings: human, drug alone, read-out: IC50 (Inhibitory Concentration where drug alone inhibits cell growth)
Description: as §6, §7, §8

HIV-1 [6] = assay: CEM cell assay, anti-HIV-1 activity; assay type: cell-based; settings: Human immunodeficiency virus 1, CCRF-CEM, HIV-1, 6 or 7 days, read-out: EC50 (Effective Concentration which protects cells from viral cytopathic effects)
Excerpt: The test systems utilized to establish the antiviral activity of the arylthio compounds of this invention are well recognized in the art and are routinely employed for such purpose. For example, the assay utilized to evaluate the compounds activity against the HIV virus is that employed by the U.S. National Cancer Institute as described by Weislow O. S., et al., J. Natl. Cancer Inst., 1989;81:577-586, incorporated herein by reference.
The procedure is designed to detect agents acting at any stage of the virus reproductive cycle. The assay basically involves the killing of T4 lymphocytes by HIV. Small amounts of HIV are added to cells, and at least two complete cycles of virus reproduction are necessary to obtain the required cell killing. Agents which interact with virions, cells, or virus gene-products to interfere with viral activities will protect cells from cytolysis. The system is automated in several features to accommodate large numbers of candidate agents, and is generally designed to detect anti-HIV activity. However, compounds which degenerate or are rapidly metabolized in the culture conditions may not show activity in this screen.
as §2, §3, §4, §5

[7] = CEM cell growth inhibition (XTT, noninfected cells); assay type: cell-based; settings: human, CEM Cell Assay, drug alone, read-out: IC50 (Inhibitory Concentration where drug alone inhibits cell growth)
Description: as §2, §3, §4, §5

HIV-1A17 [8] = assay: Anti-HIV activity, HIV-1A17 in MT-2 cells; assay type: cell-based; settings: Human immunodeficiency virus 1, MT2
Description: as §1

HIV-1IIIb [9] = assay: Anti-HIV activity, HIV-1IIIb in MT-2 cells; assay type: cell-based; settings: Human immunodeficiency virus 1, MT2; MT-2, HIV-1IIIb
Description: as §1

[10] = Human immunodeficiency virus 1, MT4, read-out: EC50 (AZT)
[11] = Human immunodeficiency virus 1, MT4

SMILES: Cc1cn([C@H]2C[C@H](N=[N+]=[N-])[C@@H](CO)O2)c(=O)[nH]c1=O [AZT, azidothymidine, reference compound]
- EC50 (HIV-1A17 [1]; [10]): 0.114 µM
- EC50 (HIV-16R; [10]): > 1 µM
- EC50 (HIV-2ROD; read-out: EC50 (AZT)): 0.00141 µM
- EC50 (SIV; read-out: EC50 (AZT)): 0.245 µM
- EC50 (HIV-1RF; read-out: EC50 (AZT)): 0.0006 µM
- EC50 (HIV-1N119; read-out: EC50 (AZT)): 0.0444 µM
- EC50 (HIV-1IIIb [2]; read-out: EC50 (AZT)): 0.0045 µM
- EC50 (HIV-1WEIO; Human immunodeficiency virus 1, read-out: EC50 (AZT)): 0.003 µM

SMILES: CC(=O)NS(=O)(=O)c1ccc(NC(=O)c2ccccc2SSc2ccccc2C(=O)Nc2ccc(S(=O)(=O)NC(C)=O)cc2)cc1 [Example 4, 2,2'-Dithiobis-N-[4-[(acetylamino)sulfonyl]phenyl]benzamide]
- EC50 (HIV-1A17 [1]; [11]): 8.9 µM
- EC50 (HIV-16R; [11]): 1.9 µM
- EC50 (HIV-2ROD; CEM, HIV-2ROD, read-out: EC50): 3 µM
- EC50 (SIV; read-out: EC50): 3.4 µM
- EC50 (HIV-1RF; CEM, HIV-1RF, read-out: EC50): 1.5 µM
- EC50 (HIV-1N119): 4.6 µM
- EC50 (HIV-1IIIb [2]; CEM, HIV-1IIIb, read-out: EC50): 5.2 µM
- EC50 (HIV-1WEIO; Human immunodeficiency virus 1): 5.2 µM
- % Zinc Extrusion Relative to Control [3]: 87%
- EC50 (HIV-1 [4]): 4.8 µM
- Minimum inhibitory concentration (Strep. pyogenes c-203): 64
- Minimum inhibitory concentration (E. coli MC4100): 128
- Minimum inhibitory concentration (E. coli B90): 32
- Minimum inhibitory concentration (Stah. aureus RBI): 256
- CC50 at 168 h [5]: 27 µM

SMILES: NS(=O)(=O)c1ccc(NC(=O)c2ccccc2S)cc1 [Example 6, 2-Thio-N-(4-sulfamoylphenyl)benzamide]
- EC50 (HIV-1 [6]): 5.2 µM
- CC50 [7]: > 100 µM
- EC50 (HIV-1 [4]): 2.5 µM
- Minimum inhibitory concentration (Strep. pyogenes c-203): 64
- Minimum inhibitory concentration (E. coli MC4100): 64
- Minimum inhibitory concentration (E. coli B90): 32
- Minimum inhibitory concentration (Stah. aureus RBI): 128
- CC50 at 168 h [5]: 28 µM

SMILES: O=c1[nH]cnc2c1ncn2[C@H]1CC[C@@H](CO)O1 [ddI, dideoxyinosine, reference compound]
- EC50 (HIV-1A17 [8]): 4.6 µM
- EC50 (HIV-1IIIb [9]): 6 µM
